Experiments:
IDH2 R140Q = target: T1, IDH2 R140Q (Homo sapiens, UniProt P48735, R140Q); experiment: IDH2 R140Q enzymatic assay (NADPH cofactor depletion, diaphorase/resazurin readout); type: biochemical; parameters: key to Enz R140Q: values indicated as “A” represent an IC50 of less than 50 nM; values indicated as “B” represent an IC50 of between 50 nM and 100 nM; values indicated as “C” represent an IC50 of greater than 100 nM; values indicated as “D” represent that the compound was either inactive or not tested in that particular assay; details: IDH2 R140Q enzyme, 16 hours preincubation, class symbols; for IC50: read-out: Enz R140Q
T1 sequence (P48735 40-452 R140Q): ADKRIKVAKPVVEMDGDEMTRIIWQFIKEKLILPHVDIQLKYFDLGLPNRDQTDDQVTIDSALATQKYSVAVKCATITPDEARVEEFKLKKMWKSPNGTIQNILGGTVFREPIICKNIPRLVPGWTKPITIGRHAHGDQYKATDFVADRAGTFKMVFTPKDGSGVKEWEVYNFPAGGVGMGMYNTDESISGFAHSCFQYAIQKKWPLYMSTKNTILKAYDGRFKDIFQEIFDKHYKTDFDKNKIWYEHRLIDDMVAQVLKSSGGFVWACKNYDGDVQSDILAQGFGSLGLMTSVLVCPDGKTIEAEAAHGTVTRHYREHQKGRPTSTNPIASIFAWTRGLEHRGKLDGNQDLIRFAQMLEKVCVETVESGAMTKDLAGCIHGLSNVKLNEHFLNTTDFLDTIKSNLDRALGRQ
Description: Compounds are assayed for IDH2 R172K inhibitory activity through a cofactor depletion assay. […] The reaction is terminated by the addition of a second enzyme, diaphorase, and a corresponding substrate, resazurin. Diaphorase reduces resazurin to the highly fluorescent resorufin with the concomitant oxidation of NADPH to NADP, both halting the IDH2 reaction by depleting the available cofactor pool and facilitating quantitation of the amount of cofactor remaining after a specific time period through quantitative production of an easily detected fluorophore.
Specifically, into each of 12 wells of a 384-well plate, 1 μl of 100× compound dilution series is placed, followed by the addition of 40 μl of buffer (50 mM potassium phosphate (K2HPO4), pH 7.5; 150 mM NaCl; 10 mM MgCl2, 10% glycerol, 0.05% bovine serum albumin, 2 mM beta-mercaptoethanol) containing 1.25 μg/ml IDH2 R172K. The test compound is then incubated for 16 hours at room temperature with the enzyme; before starting the IDH2 reaction with the addition of 10 μl of substrate mix containing 50 μM NADPH and 6.3 mM α-KG in the buffer described above. After a further one hour of incubation at room temperature, the reaction is halted and the remaining NADPH measured through conversion of resazurin to resorufin by the addition of 25 μl Stop Mix (36 μg/ml diaphorase enzyme and 60 μM resazurin; in buffer). After one minute of incubation the plate is read on a plate reader at Ex544/Em590.
For determination of the inhibitory potency of compounds against IDH2 R140Q in an assay format similar to the above, a similar procedure is performed, except that the final testing concentration is 0.25 μg/ml IDH2 R140Q protein, 4 μM NADPH and 1.6 mM α-KG.
For determination of the inhibitory potency of compounds against IDH2 R140Q in a high throughput screening format, a similar procedure is performed, except that 0.25 μg/ml IDH2 R140Q protein was utilized in the preincubation step, and the reaction is started with the addition of 4 μM NADPH and 8 μM α-KG.

[1] = test system: U87MG pLVX-IDH2 R140Q-neo cells; experiment: U87MG pLVX-IDH2 R140Q-neo cell based assay (2-HG in media by LC-MS); parameters: key to Cell R140Q: values indicated as “A” represent an IC50 of less than 50 nM; values indicated as “B” represent an IC50 of between 50 nM and 100 nM; values indicated as “C” represent an IC50 of greater than 100 nM; values indicated as “D” represent that the compound was either inactive or not tested in that particular assay; details: 2-HG at 48 hours, class symbols; for IC50: Homo sapiens, U-87 MG
Description: U87MG pLVX-IDH2 R140Q-neo Cell Based Assay.
U87MG pLVX-IDH2 R140Q-neo cells are grown in T125 flasks in DMEM containing 10% FBS, 1× penicillin/streptomycin and 500 μg/mL G418. They are harvested by trypsin and seeded into 96 well white bottom plates at a density of 5000 cell/well in 100 μl/well in DMEM with 10% FBS. No cells are plated in columns 1 and 12. Cells are incubated overnight at 37° C. in 5% CO2. The next day compounds are made up at 2x concentration and 100 ul are added to each cell well. The final concentration of DMSO is 0.2% and the DMSO control wells are plated in row G. The plates are then placed in the incubator for 48 hours. At 48 hours, 100 ul of media is removed from each well and analyzed by LC-MS for 2-HG concentrations. The cell plate is placed back in the incubator for another 24 hours. At 72 hours post compound addition, 10 mL/plate of Promega Cell Titer Glo reagent is thawed and mixed. The cell plate is removed from the incubator and allowed to equilibrate to room temperature. Then 100 ul of reagent is added to each well of media. The cell plate is then placed on an orbital shaker for 10 minutes and then allowed to sit at room temperature for 20 minutes. The plate is then read for luminescence with an integration time of 500 ms to determine compound effects on growth inhibition.

| SMILES | IC50 (IDH2 R140Q) [nM] | IC50 [1] [nM] | Enz R140Q (IDH2 R140Q) | Cell R140Q [1] |
| --- | --- | --- | --- | --- |
| CC(C)CC(=O)Nc1cc(Nc2ccccc2)nc(-c2ccccc2)n1 [Compound 701] |  | > 100 | D |  |
| CC(C)C(=O)Nc1cc(Nc2ccccc2)nc(-c2ccccc2)n1 [Compound 702] | < 50 | > 100 |  |  |
| CC(C)OC(=O)Nc1cc(Nc2ccccc2)nc(-c2ccccc2)n1 [Compound 703] |  | > 100 | D |  |
| CC(C)Nc1cc(Nc2ccccn2)nc(-c2cccc(C(F)(F)F)n2)n1 [Compound 704] | < 50 | < 50 |  |  |
| CC(C)Nc1cc(Nc2ccnc(C(F)(F)F)c2)nc(-c2cccc(C(F)(F)F)n2)n1 [Compound 706] | < 50 | < 50 |  |  |
| CC(C)Nc1cc(Nc2ccccc2)nc(-c2cccc(C(F)(F)F)n2)n1 [Compound 708] | < 50 | 50 to 100 |  |  |
| CC(C)(O)CNc1cc(Nc2ccnc(C(F)(F)F)c2)nc(-c2cccc(C(F)(F)F)n2)n1 [Compound 709] | > 100 | > 100 |  |  |
| CC(C)Nc1cc(Nc2cc(C#N)ccn2)nc(-c2cccc(C(F)(F)F)n2)n1 [Compound 712] | < 50 | < 50 |  |  |
| CC(C)Nc1cc(Nc2cc(C(F)F)ccn2)nc(-c2cccc(C(F)(F)F)n2)n1 [Compound 714] | < 50 | < 50 |  |  |
| FC(F)(F)c1ccnc(Nc2cc(NCC3CC3)nc(-c3cccc(C(F)(F)F)n3)n2)c1 [Compound 715] | < 50 | < 50 |  |  |
| CC(C)(C)Nc1cc(Nc2cc(C(F)(F)F)ccn2)nc(-c2cccc(C(F)(F)F)n2)n1 [Compound 716] | 50 to 100 | < 50 |  |  |
| CC(C)(C)Nc1cc(Nc2cc(C3(C#N)CC3)ccn2)nc(-c2cccc(C(F)(F)F)n2)n1 [Compound 721] | 50 to 100 | < 50 |  |  |
| COc1ccc(CNc2cc(Nc3cc(C(F)(F)F)ncn3)nc(-c3cccc(C(F)(F)F)n3)n2)cc1 [Compound 724] | < 50 |  |  | D |
| CC(C)(CO)Nc1cc(Nc2cc(C(F)(F)F)ncn2)nc(-c2cccc(C(F)(F)F)n2)n1 [Compound 725] | 50 to 100 |  |  | D |
| Nc1cc(Nc2ccnc(C(F)(F)F)c2)nc(-c2cccc(C(F)(F)F)n2)n1 [Compound 728] |  |  | D | D |
| CC(C)CC(=O)Nc1cc(-c2ccccc2)nc(Nc2ccccc2)n1 [Compound 735] | > 100 | > 100 |  |  |
| CC(C)C(=O)Nc1cc(-c2ccccc2)nc(Nc2ccccc2)n1 [Compound 736] |  | > 100 | D |  |
| CC(C)OC(=O)Nc1cc(-c2ccccc2)nc(Nc2ccccc2)n1 [Compound 737] |  |  | D | D |
| CC(C)Nc1nc(Nc2ccnc(C(F)(F)F)c2)cc(-c2cccc(C(F)(F)F)n2)n1 [Compound 738] | < 50 | 50 to 100 |  |  |
| CC(C)Nc1cc(-c2cccc(C(F)(F)F)n2)nc(Nc2ccnc(C(F)(F)F)c2)n1 [Compound 739] | < 50 | > 100 |  |  |

Second part, led by results:

| IC50 (IDH2 R140Q) [nM] | IC50 [1] [nM] | Enz R140Q (IDH2 R140Q) | SMILES | Cell R140Q [1] |
| --- | --- | --- | --- | --- |
| 50 to 100 | > 100 |  | CC(C)Nc1cc(Nc2ccccc2)nc(-c2ccccc2)n1 [Compound 700] |  |
| < 50 | < 50 |  | CC(C)Nc1cc(Nc2cc(Cl)ccn2)nc(-c2cccc(C(F)(F)F)n2)n1 [Compound 705] |  |
| > 100 | > 100 |  | CC(C)(O)CNc1cc(Nc2ccccn2)nc(-c2cccc(C(F)(F)F)n2)n1 [Compound 707] |  |
| < 50 | < 50 |  | CC(C)Nc1cc(Nc2cccc(Cl)n2)nc(-c2cccc(C(F)(F)F)n2)n1 [Compound 710] |  |
| < 50 | < 50 |  | CC(C)Nc1cc(Nc2cc(C(F)(F)F)ccn2)nc(-c2cccc(C(F)(F)F)n2)n1 [Compound 711] |  |
| < 50 | < 50 |  | CC(C)Nc1cc(Nc2cc(C(C)(F)F)ccn2)nc(-c2cccc(C(F)(F)F)n2)n1 [Compound 713] |  |
| < 50 | < 50 |  | CC(C)Nc1cc(Nc2cc(C(F)(F)F)ncn2)nc(-c2cccc(C(F)(F)F)n2)n1 [Compound 717] |  |
| < 50 | < 50 |  | CC(C)(O)CNc1cc(Nc2cc(C(F)(F)F)ccn2)nc(-c2cccc(C(F)(F)F)n2)n1 [Compound 718] |  |
| < 50 | < 50 |  | N#CC1(c2ccnc(Nc3cc(NCC4CC4)nc(-c4cccc(C(F)(F)F)n4)n3)c2)CC1 [Compound 719] |  |
| < 50 | < 50 |  | CC(C)Nc1cc(Nc2cc(C3(C#N)CC3)ccn2)nc(-c2cccc(C(F)(F)F)n2)n1 [Compound 720] |  |
| > 100 |  |  | Nc1cc(Nc2cc(C(F)(F)F)ccn2)nc(-c2cccc(C(F)(F)F)n2)n1 [Compound 722] | D |
| 50 to 100 |  |  | CC(C)(C)Nc1cc(Nc2cc(C(F)(F)F)ncn2)nc(-c2cccc(C(F)(F)F)n2)n1 [Compound 723] | D |
| > 100 |  |  | Nc1cc(Nc2cc(C(F)(F)F)ncn2)nc(-c2cccc(C(F)(F)F)n2)n1 [Compound 726] | D |
| 50 to 100 |  |  | COc1ccc(CNc2cc(Nc3ccnc(C(F)(F)F)c3)nc(-c3cccc(C(F)(F)F)n3)n2)cc1 [Compound 727] | D |
|  |  | D | CC(C)Nc1nc(Nc2ccccc2)cc(-c2ccccc2)n1 [Compound 729] | D |
| 50 to 100 | 50 to 100 |  | CC(C)Nc1cc(-c2ccccc2)nc(Nc2ccccc2)n1 [Compound 730] |  |
|  | > 100 | D | O=C(Cc1ccccc1)Nc1nc(Nc2ccccc2)cc(-c2ccccc2)n1 [Compound 734] |  |
